Data reported in patent US10329309B2, “3-(3H-imidazo[4,5-B]pyridin-2-yl)-1H-pyrazolo[4,3-B]pyridines and therapeutic uses thereof” (Samumed, LLC, priority 2015, dated 2019).

Columns and labels:
[1] = system: primary human fibroblasts derived from IPF patients (LL29 cells), α-smooth muscle actin (αSMA); test: Inhibition of the fibrotic process: TGF-β1-treated primary human fibroblasts from IPF patients, αSMA staining; format: cell-based; conditions: Fibroblast, 96 h, 4 days; for EC50: LL29 fibroblasts from IPF patients, TGF-β1 20 ng/mL, inhibition of fibrotic process; for inhibition at 10 µM: LL29 fibroblasts, TGF-β1 treated, read-out: percent inhibition at 10 μM (given for EC50 of >10 μM)
Summary of the method: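 Read-out: fraction of αSMA-positive cells by high-content imaging, SYTOX-stained dead cells excluded, normalized to TGF-β1/DMSO wells. Cells got compound (10 μM–[…], 11 points) plus TGF-β1 20 ng/mL for 4 days. EC50 from triplicate curves; above 10 μM, % inhibition at 10 μM given.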

[2] = system: primary human mesenchymal stem cells (hMSCs); test: Induction of chondrogenesis in primary human mesenchymal stem cells (nodule imaging, Rhodamine B/Nile Red); format: cell-based; conditions: hMSC chondrogenesis; for Emax: TGF-β3 as positive control, read-out: Max. Activity as % TGF-β3 activity; for EC50: concentration required to induce 50% levels of chondrogenesis vs TGF-β3, read-out: Conc (nM) of 50% TGF-β3 activity
Summary of the method: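 hMSCs (passage 3–6) in incomplete chondrogenic induction medium were dosed at 2700–10 nM (96-well, 6-point) or 5000–2.2 nM (384-well, 8-point), 0.03% DMSO final, for 6 days at 37° C. Fixed nodules stained with Rhodamine B/Nile Red were imaged; nodule area normalized to DMSO wells gave EC50, maximum activity and dose at maximum, with TGF-β3 (10 ng/mL) as positive control.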

Row | SMILES | EC50 [2] [nM] | EC50 [1] [nM] | Emax [2] [%] | inhibition at 10 µM [1] [%]
1 | Cc1ccc(-c2ccnc3[nH]c(-c4n[nH]c5ccc(-c6cncc(NC(=O)C(C)C)c6)nc45)nc23)s1 [Compound 401, N-(5-(3-(7-(5-methylthiophen-2-yl)-3H-imidazo[4,5-b]pyridin-2-yl)-1H-pyrazolo[4,3-b]pyridin-5-yl)pyridin-3-yl)isobutyramide] | 1670 | 158 | 66 | –
2 | Cc1ccncc1-c1ccc2[nH]nc(-c3nc4c(-c5cc(F)cc(CNS(C)(=O)=O)c5)ccnc4[nH]3)c2n1 [Compound 481, N-(3-fluoro-5-(2-(5-(4-methylpyridin-3-yl)-1H-pyrazolo[4,3-b]pyridin-3-yl)-3H-imidazo[4,5-b]pyridin-7-yl)benzyl)methanesulfonamide] | – | 5180 | 47 | –
3 | Fc1cccc(-c2ccnc3[nH]c(-c4n[nH]c5ccc(C6=CCNCC6)nc45)nc23)c1 [Compound 506, 3-(7-(3-fluorophenyl)-3H-imidazo[4,5-b]pyridin-2-yl)-5-(1,2,3,6-tetrahydropyridin-4-yl)-1H-pyrazolo[4,3-b]pyridine] | – | > 10000 | 47 | 0
4 | NC1CN(c2cncc(-c3ccc4[nH]nc(-c5nc6c(-c7cccc(F)c7)ccnc6[nH]5)c4n3)n2)C1 [Compound 510, 1-(6-(3-(7-(3-fluorophenyl)-3H-imidazo[4,5-b]pyridin-2-yl)-1H-pyrazolo[4,3-b]pyridin-5-yl)pyrazin-2-yl)azetidin-3-amine] | – | > 10000 | 46 | 0
5 | CN(C)CCOc1cncc(-c2ccc3[nH]nc(-c4nc5c(-c6cccc(F)c6)ccnc5[nH]4)c3n2)c1 [Compound 515, 2-((5-(3-(7-(3-fluorophenyl)-3H-imidazo[4,5-b]pyridin-2-yl)-1H-pyrazolo[4,3-b]pyridin-5-yl)pyridin-3-yl)oxy)-N,N-dimethylethan-1-amine] | – | 2610 | 45 | –
6 | COc1cncc(-c2ccc3[nH]nc(-c4nc5c(-c6cccc(F)c6)ccnc5[nH]4)c3n2)c1 [Compound 516, 3-(7-(3-fluorophenyl)-3H-imidazo[4,5-b]pyridin-2-yl)-5-(5-methoxypyridin-3-yl)-1H-pyrazolo[4,3-b]pyridine] | – | 1580 | 47 | –

Continued, in another order:

Row | EC50 [2] [nM] | SMILES | EC50 [1] [nM] | Emax [2] [%] | inhibition at 10 µM [1] [%]
7 | 30 | CC(C)Nc1cncc(-c2ccc3[nH]nc(-c4nc5c(-c6cc(F)cc(NCCN(C)C)c6)ccnc5[nH]4)c3n2)c1 [Compound 460, N^1-(3-fluoro-5-(2-(5-(5-(isopropylamino)pyridin-3-yl)-1H-pyrazolo[4,3-b]pyridin-3-yl)-3H-imidazo[4,5-b]pyridin-7-yl)phenyl)-N^2,N^2-dimethylethane-1,2-diamine] | 2450 | 63 | –
8 | 10 | Cc1ncc(-c2ccc3[nH]nc(-c4nc5c(-c6cccc(F)c6)ccnc5[nH]4)c3n2)n1C [Compound 509, 5-(1,2-dimethyl-1H-imidazol-5-yl)-3-(7-(3-fluorophenyl)-3H-imidazo[4,5-b]pyridin-2-yl)-1H-pyrazolo[4,3-b]pyridine] | > 10000 | 97 | 0
9 | 2 | Oc1cncc(-c2ccc3[nH]nc(-c4nc5c(-c6cccc(F)c6)ccnc5[nH]4)c3n2)c1 [Compound 517, 5-(3-(7-(3-fluorophenyl)-3H-imidazo[4,5-b]pyridin-2-yl)-1H-pyrazolo[4,3-b]pyridin-5-yl)pyridin-3-ol] | 1150 | 59 | –
10 | 2 | Fc1cccc(-c2ccnc3[nH]c(-c4n[nH]c5ccc(-c6cnccn6)nc45)nc23)c1 [Compound 520, 3-(7-(3-fluorophenyl)-3H-imidazo[4,5-b]pyridin-2-yl)-5-(pyrazin-2-yl)-1H-pyrazolo[4,3-b]pyridine] | 5330 | 63 | –
